These results are taken from patent US20100210611A1, “COMBINATION THERAPY” (priority 2007, published 2010).

A short description of this data set: Dose uniformity, Dosage Unit Sampling Apparatus (DUSA), USP <601>. The format is physicochemical. The settings on record: Spinhaler; for Total recovered / amount in Device + Capsule: listed as MON; for amount in Device + Capsule: nominal 1000 μg MON, 400 μg MOM. As to the method:
Dose uniformity was determined using Apparatus B (Dosage Unit Sampling Apparatus—DUSA) at a flow rate of 100 L/min (test described in United States Pharmacopoeia (USP) 27 Chapter <601>). The USP recommends selecting a flow rate that creates a pressure drop of 4 kPa across the inhaler. With the Spinhaler, a 4 kPa pressure drop could not be achieved even at the maximum flow rate of 100 L/min. Based on the recommendations of Byron, et al., a flow rate of 100 L/min was selected since the Spinhaler is a low resistance device. See Michael Hindle and Peter R. Byron, “Dose emissions from marketed dry powder inhalers”, International Journal of Pharmaceutics 116 (1995) 169-177. The test was run for 2.4 seconds in order to pull 4 L of air. After a shot had been delivered, all pieces of the DUSA including the mouthpiece adapter were rinsed with solvent. To determine the amount of drug retained in the inhaler, all pieces of the inhaler were rinsed with solvent including the interior of the capsule. The samples were then assayed using the UV-Vis spectrophotometer.
Shot weight was obtained by measuring the weight loss due to the actuation of the device. The device was tared, a “shot” was wasted in the DUSA and the device was re-weighed to obtain the delivered shot weight. Dose and shot weight were deemed acceptable if they were within 75% to 125% of the theoretical values (USP <601>).
Dose Uniformity (DU) was performed according to USP Chapter <601> by using DUSA Apparatus B with the Spinhaler® device which is analogous to that described in section Dose Uniformity for Example 1. However, the HPLC was used to analyze the content of the drugs as described in the Blend Uniformity in this example.
Dose Uniformity was performed according to USP Chapter <601> by using DUSA Apparatus B with the Spinhaler® device and in a manner analogous to that described in section Dose Uniformity in Example 4, except the HPLC was used to analyze the content of the drugs as described in the Blend Uniformity in this example.

Setting [1] is: Example 4 blend, flow 61.5 L/min for 3.9 sec.
Where [2] appears, read: Example 4 blend, flow 62.3 L/min for 3.9 sec.
Where [3] appears, read: Example 4 blend, flow 62.8 L/min for 3.8 sec.

Values joined by “and” are separate entries in the source; they are usually repeats but may differ in a detail not shown here. Equal values may be shown once.

For `CC(C)(O)c1ccccc1CC[C@@H](SCC1(CC(=O)O)CC1)c1cccc(/C=C/c2ccc3ccc(Cl)cc3n2)c1` [Montelukast Acid, montelukast acid], where the note is “Example 4 blend”, the “DU based on nominal dose, % (Device + Capsule)” value was “*46.6%”; the “DU based on nominal dose, % (printed in Adapter + Filter column)” value worked out at 49.3%; the “DU based on total recovered, % (Device + Capsule)” value is “**48.6%”; the “DU based on total recovered, % (printed in Adapter + Filter column)” value is recorded as 51.4%. Under setting [1], the “Total recovered” value is 952.06 µg and 949.00 µg and 958.48 µg; the “amount in Device + Capsule” value is 465.70 µg and 463.98 µg and 465.53 µg. Also, under setting [2], the “Total recovered” value was 983.22 µg and 979.15 µg; the “amount in Device + Capsule” value is 462.40 µg and 459.39 µg. For the same compound, under setting [3], the “Total recovered” value is 937.91 µg and 949.52 µg; the “amount in Device + Capsule” value was 468.24 µg and 473.48 µg. Moreover, where the note is “Example 5 blend”, the “DU based on nominal dose, % (Device + Capsule)” value is given as “*44.5%”; the “DU based on nominal dose, % (printed in Adapter + Filter column)” value came out at 47.8%; the “DU based on total recovered, % (Device + Capsule)” value was “**48.2%”; the “DU based on total recovered, % (printed in Adapter + Filter column)” value was 51.8%.
